Where “and” joins values, the source holds several entries; their conditions need not be identical. Equal entries are not always repeated.
Experiments:
CYP2E1 = CYP2E1 (Homo sapiens, UniProt P05181); assay: Induction/inhibition of CYP2E1 activity in cryopreserved human hepatocytes (chlorzoxazone)
From the text: Hepatocytes from three human donors were obtained from a cryopreserved hepatocyte bank (In Vitro Technologies, Inc., USA). After thawing, viable hepatocytes were transferred to collagen-coated 48-well plates for attachment in plating medium (DMEM stock (Dulbecco's modified Eagle's medium, supplemented with bovine serum albumin, fructose, N-(2-hydroxyethyl)piperazine-N′-(2-ethanesulfonate) (HEPES), and sodium bicarbonate), supplemented with antibiotics, bovine serum, hydrocortisone, insulin and minimum essential medium (MEM) nonessential amino acids). After attachment to the collagen matrix, plating medium was replaced with sandwich medium (plating medium supplemented with VITROGEN) and incubated until use.
The supplemented KHB was replaced with 150 μL supplemented KHB containing the appropriate isoform-selective substrate and incubated for 4 hrs prior to termination by adding 150 μL ice-cold methanol, except for the CYP2C8 incubations which were terminated by adding 150 μL acetonitrile.
All substrates were dissolved in acetonitrile.
Replicate trials and controls were performed. […] Additionally, reference control samples were included to evaluate inducibility of CYP2B6, CYP2C9, and CYP2C19 in the test system.
Mean specific activity values with associated p-values≦0.05 were deemed to be statistically significant.

CYP2A6 = assay: Chemical inhibition of metaxalone turnover in human liver microsomes, CYP2A6 inhibitor pilocarpine; conditions: 1 mg/mL HLM, 60 min, with pilocarpine; for % Turnover / % inhibition of turnover / Conc.: single replicates
Protocol: Human liver microsomes pooled from 15 individuals (male and female) (Pool HMMC-PL020; CellzDirect, Inc., In Vitro Products and Services Division) were used in some experiments of this study.
% Turnover=100−{[TA(final)]/[mean of TA(0 min)]}×100,
% Inhibition of Turnover=100{1−([TA(0 min)]−[TA(final-inhibitor)])/([TA(0 min)]−[TA(final-no inhibitor)])}.
The inhibitors or vehicle control were incubated with the pooled human liver microsomes (1 mg/mL) and NADPH (1 mM) in 0.1 M phosphate buffer, pH 7.4. […] Incubations were conducted in triplicate and terminated by addition of organic solvent. Samples were extracted and analyzed by LC-MS/MS as described above.

CYP2D6 = CYP2D6 (Homo sapiens, UniProt P10635); assay: Metabolism of metaxalone by expressed recombinant human CYP2D6 at 5 or 20 pmol (Example 4); conditions: for percent turnover / % Turnover Mean / [metaxalone] Mean / % Turnover % / [metaxalone]: 60 min; for % Turnover % / [metaxalone]: single replicates, listed as Metaxalone
Protocol: For CYP2C9 and CYP2D6, SUPERSOMES singly-expressing different allelic variants of the cytochrome p450 isozyme were commercially available. For each of CYP2C9 and CYP2D6, only the *1 allele was tested in these experiments. […]

[1] = 0.75 μM metaxalone, 20 pmol cyp

CYP2D6, sequence (P10635 whole entry): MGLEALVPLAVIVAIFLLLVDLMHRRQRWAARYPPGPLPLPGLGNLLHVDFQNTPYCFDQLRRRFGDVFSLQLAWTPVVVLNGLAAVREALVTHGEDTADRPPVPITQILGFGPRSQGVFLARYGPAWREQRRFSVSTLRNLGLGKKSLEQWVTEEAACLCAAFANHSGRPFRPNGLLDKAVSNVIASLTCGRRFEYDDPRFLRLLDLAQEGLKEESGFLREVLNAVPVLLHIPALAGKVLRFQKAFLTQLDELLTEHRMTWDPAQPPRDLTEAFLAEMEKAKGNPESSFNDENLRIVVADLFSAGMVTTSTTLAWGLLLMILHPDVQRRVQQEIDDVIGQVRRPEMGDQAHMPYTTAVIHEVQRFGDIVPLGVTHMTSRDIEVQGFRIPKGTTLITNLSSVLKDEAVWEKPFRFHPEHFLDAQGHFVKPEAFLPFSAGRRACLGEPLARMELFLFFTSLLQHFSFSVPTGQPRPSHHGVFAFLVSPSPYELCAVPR
CYP2E1, sequence (P05181 whole entry): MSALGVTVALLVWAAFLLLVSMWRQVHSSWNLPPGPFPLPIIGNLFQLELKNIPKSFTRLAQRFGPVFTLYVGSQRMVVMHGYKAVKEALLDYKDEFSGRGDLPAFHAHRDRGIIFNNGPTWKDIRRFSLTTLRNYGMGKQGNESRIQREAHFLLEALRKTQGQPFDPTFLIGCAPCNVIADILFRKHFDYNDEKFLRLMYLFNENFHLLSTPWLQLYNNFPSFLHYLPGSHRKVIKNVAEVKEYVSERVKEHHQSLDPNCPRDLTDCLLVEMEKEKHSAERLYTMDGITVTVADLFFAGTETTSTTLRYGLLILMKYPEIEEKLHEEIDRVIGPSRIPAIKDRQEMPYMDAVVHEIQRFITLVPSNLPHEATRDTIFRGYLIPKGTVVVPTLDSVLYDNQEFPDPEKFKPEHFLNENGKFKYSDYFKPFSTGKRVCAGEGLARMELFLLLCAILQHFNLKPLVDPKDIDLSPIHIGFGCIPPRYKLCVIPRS

## Cc1cc(C)cc(OCC2CNC(=O)O2)c1 (stereo not shown) [metaxalone, 5-[(3,5-dimethylphenoxy)methyl]-2-oxazolidinone]
CYP2E1; CYP isozyme 2E1, summary of studies
  Inducer/Inhibitor: 0
CYP2E1; Donor 1, Metaxalone 0.4 μM
  Specific Activity Individual: 2.58 pmol/min/million cells and 2.66 pmol/min/million cells and 2.19 pmol/min/million cells
  Specific Activity Mean ± SD: 2.47 ± 0.249 pmol/min/million cells
CYP2E1; Donor 1, Metaxalone 4 μM
  Percent of VC: 104%
  Specific Activity Individual: 2.57 pmol/min/million cells and 2.47 pmol/min/million cells and 2.87 pmol/min/million cells
  Specific Activity Mean ± SD: 2.64 ± 0.210 pmol/min/million cells
CYP2E1; Donor 1, Metaxalone 40 μM
  Percent of VC: 104%
  Specific Activity Individual: 2.54 pmol/min/million cells and 2.66 pmol/min/million cells and 2.69 pmol/min/million cells
  Specific Activity Mean ± SD: 2.63 ± 0.0782 pmol/min/million cells
CYP2E1; Donor 2, Metaxalone 0.4 μM
  Percent of VC: 104%
  Specific Activity Individual: 0.631 pmol/min/million cells and 0.683 pmol/min/million cells and 0.765 pmol/min/million cells
  Specific Activity Mean ± SD: 0.693 ± 0.0673 pmol/min/million cells
CYP2E1; Donor 2, Metaxalone 4 μM
  Percent of VC: 89.6%
  Specific Activity Individual: 0.564 pmol/min/million cells and 0.605 pmol/min/million cells and 0.626 pmol/min/million cells
  Specific Activity Mean ± SD: 0.598 ± 0.0317 pmol/min/million cells
CYP2E1; Donor 2, Metaxalone 40 μM
  Percent of VC: 99.6%
  Specific Activity Individual: 0.558 pmol/min/million cells and 0.633 pmol/min/million cells and 0.804 pmol/min/million cells
  Specific Activity Mean ± SD: 0.665 ± 0.126 pmol/min/million cells
CYP2E1; Donor 3, Metaxalone 0.4 μM
  Percent of VC: 90.7%
  Specific Activity Individual: 0.449 pmol/min/million cells and 0.474 pmol/min/million cells and 0.462 pmol/min/million cells
  Specific Activity Mean ± SD: 0.462 ± 0.0125 pmol/min/million cells
CYP2E1; Donor 3, Metaxalone 4 μM
  Percent of VC: 87.7%
  Specific Activity Individual: 0.468 pmol/min/million cells and 0.464 pmol/min/million cells and 0.406 pmol/min/million cells
  Specific Activity Mean ± SD: 0.446 ± 0.0348 pmol/min/million cells
CYP2E1; Donor 3, Metaxalone 40 μM
  Percent of VC: 93.9%
  Specific Activity Individual: 0.470 pmol/min/million cells and 0.495 pmol/min/million cells and 0.469 pmol/min/million cells
  Specific Activity Mean ± SD: 0.478 ± 0.0146 pmol/min/million cells
CYP2E1; any of the tested concentrations (0.4, 4.0, 40 μM)
  effects on CYP activity: no significant effects
CYP2A6; 0.75 μM metaxalone
  % Turnover Mean: 16.0%
  % inhibition of turnover Mean: 46.2%
  Mean Conc.: 0.648 µM
  % Turnover: 13.9% and 14.7% and 19.4%
  % inhibition of turnover: 53.2% and 50.6% and 34.9%
  Conc.: 0.664 µM and 0.658 µM and 0.622 µM
CYP2A6; 7.5 μM metaxalone
  % Turnover Mean: 12.1%
  % inhibition of turnover Mean: 50.8%
  Mean Conc.: 7.48 µM
  % Turnover: 8.8% and 14.5% and 13.0%
  % inhibition of turnover: 64.2% and 41.2% and 47.1%
  Conc.: 7.76 µM and 7.28 µM and 7.41 µM
CYP2D6; 0.75 μM metaxalone, 5 pmol CYP450
  percent turnover: 9.9%
CYP2D6; 0.75 μM metaxalone, 5 pmol cyp
  % Turnover Mean: 9.9%
  [metaxalone] Mean: 0.642 µM
  % Turnover %: 8.8% and 11.6% and 9.1%
  [metaxalone]: 0.649 µM and 0.629 µM and 0.647 µM
CYP2D6; 0.75 μM metaxalone, 20 pmol CYP450
  percent turnover: 19.5%
CYP2D6; [1]
  % Turnover Mean: 19.5%
  [metaxalone] Mean: 0.573 µM
  % Turnover %: 23.3% and 16.7% and 18.5%
  [metaxalone]: 0.546 µM and 0.593 µM and 0.581 µM
CYP2D6; 7.5 μM metaxalone, 5 pmol CYP450
  percent turnover: 12.6%
CYP2D6; 7.5 μM metaxalone, 5 pmol cyp
  % Turnover Mean: 12.6%
  [metaxalone] Mean: 6.74 µM
  % Turnover %: 10.7% and 12.5% and 14.5%
  [metaxalone]: 6.89 µM and 6.75 µM and 6.60 µM
CYP2D6; 7.5 μM metaxalone, 20 pmol CYP450
  percent turnover: 24.9%
CYP2D6; 7.5 μM metaxalone, 20 pmol cyp
  % Turnover Mean: 24.9%
  [metaxalone] Mean: 5.79 µM
  % Turnover %: 23.9% and 23.5% and 27.3%
  [metaxalone]: 5.87 µM and 5.90 µM and 5.61 µM
CYP2D6; CYP isozyme 2D6, summary of studies
  Substrate: +
